Data: patent US6034134A, “1-Amino-alkylcyclohexane NMDA receptor antagonists” (Merz + Co. GmbH & Co., priority 1998, dated 2000)
pIC50: −log10 of the molar value. Structures can show the parent of a compound that is named as a salt. Where two headings read alike, the source gives them in different places.

Assays:
cortical neurones = experiment: Excitotoxicity: glutamate toxicity in cultured cortical neurones (MTT); type: cell-based, rat; details: Rattus norvegicus, Cortical neurone
Protocol: Cortical neurones were obtained from cerebral cortices of 17/18 day old fetal rats (Wistar), in general following the dissociation procedure described by. After short trypsinization and gentle trituration with fire-polished Pasteur pipettes, the cell suspension was washed by centrifugation. Cells were suspended in serum-free Neurobasal medium with B27 supplement (GIBCO) before plating onto poly-L-lysine (Sigma; 0.2 mg/ml, 20 h, 4° C.) and laminin (Sigma; 2 μg/ml, 1 h, 37° C.)-coated 96-well plates (Falcon, Primaria) at a density of 5×10^4 cells/well. Cortical neurones were maintained at 37° C. in humidified 10% CO2 /90% air. […] The medium was changed first after 4 days in vitro and then every 4 days by replacing 2/3 of the medium with astrocyte-conditioned medium. Cortical neurones between day 12 and 14 in culture were used for the experiments.
New-born rat astrocytes were isolated non-enzymatically according to the method of [24]. Briefly, both hemispheres were dissected from 2-day-old rats, passed through an 80 μm gauze, and triturated with Pasteur pipettes. Cell suspension was made in Dulbecco's modified essential medium (DMEM, Gibco) supplemented with 10% fetal calf serum (FCS, Hyclone), 2 mM glutamine (Gibco) and 50 μg/ml gentamycin and transferred into untreated, plastic culture flasks (Corning; […]). Two days after plating the flasks were shaken for 10 minutes on a rotary platform (150 U/min) to remove microglial cells. The cultures were grown to confluency within 14 days, and the culture medium was changed twice weekly. Thereafter, the glial monolayers were extensively washed with serum-free Neurobasal medium (Gibco) to remove the serum. Flasks were then shaken several times to remove oligodendrocytes and neurones. To obtain conditioned medium from primary astrocytes, the cultures were incubated with fresh Neurobasal medium supplemented with B27 andglutamine. Every 2-3 days the conditioned medium was collected and replaced by fresh medium up to 4 times.
Exposure to EAA was performed in serum-free Neurobasal medium containing 100 μM glutamate and the drug to be tested. After 20 h of incubation, the cytotoxic effect was morphologically examined under a phase contrast microscope and biochemically quantified by measuring cell viability with the MTT test (Promega). This calorimetric assay measures the reduction of a tetrazolium component (MTT) into an insoluble formazan product by the mitochondria of living cells. After incubation of the cortical neurones with the dye solution for approximately 1-4 hours, a solubilization solution was added to lyse the cells and solubilize the colored product (incubation overnight at 37° C., 10% CO2, 90% RH). These samples were then read using an Elisa plate reader (Thermomax, MWG Biotech) at a wavelength of 570 nm. The amount of color produced was directly proportional to the number of viable cells.
(§1) IC50 s in patch clamp, excitotoxicity, and binding studies were calculated according to the four parameter logistic equation using the Grafit computer program (Erithacus Software, England). Ki value for binding studies were then determined according to Cheng and Prusoff. Binding values presented are means±SEM of 3-5 determinations (each performed in duplicate). […] Pearson product moment correlation analysis (Sigma Stat, Jandel Scientific) was used to compare in vitro potencies and in vivo anticonvulsant activity.

NMDA receptor = experiment: Patch clamp: NMDA-induced inward currents in cultured hippocampal neurones; type: cell-based, rat
Protocol: Hippocampi were obtained from rat embryos (E20 to E21) and were then transferred to calcium and magnesium free Hank's buffered salt solution (Gibco) on ice. Cells were mechanically dissociated in 0.05% DNAase/0.3% ovomucoid (Sigma) following an 8 minute pre-incubation with 0.66% trypsin/0.1% DNAase (Sigma). The dissociated cells were then centrifuged at 18 ×g for 10 minutes, re-suspended in minimum essential medium (Gibco) and plated at a density of 150,000 cells cm^-2 onto poly-L-lysine (Sigma)-precoated plastic petri dishes (Falcon). The cells were nourished with NaHCO3 /HEPES-buffered minimum essential medium supplemented with 5% fetal calf serum and 5% horse serum (Gibco) and incubated at 37° C. with 5% CO2 at 95% humidity. […] Thereafter the medium was exchanged partially twice weekly.
Patch clamp recordings were made from these neurones with polished glass electrodes (4-6 m.OMEGA.) in the whole cell mode at room temperature (20-22° C.) with the aid of an EPC-7 amplifier (List). Test substances were applied by switching channels of a custom-made fast superfusion system with a common outflow (10-20 ms exchange times). The contents of the intracellular solution were as follows (mM): CsCl (120), TEACl (20), EGTA (10), MgCl2 (1), CaCl2 -(0.2), glucose (10), ATP(2), cAMP (0.25); pH was adjusted to 7.3 with CsOH or HC1. The extracellular solutions had the following basic composition (mM): NaCl (140), KCl (3), CaCl2 (0.2), glucose (10), HEPES (10), sucrose (4.5), tetrodotoxin (TTX 3*10^-4). Glycine (1 μM) was present in all solutions: a concentration sufficient to cause around 80-85% activation of glycineB receptors. Only results from stable cells were accepted for inclusion in the final analysis, i.e., following recovery of responses to NMDA by at least 75% of their depression by the antagonists tested.
as §1

[1] = Maximal electroshock (MES)-induced convulsions in mice; type: in vivo; details: Mus musculus, ip, 0.5 h, mice, i.p., read-out: MES ED50
Protocol: (§2) NMR female mice (18-28 g) housed 5 per cage were used for the maximal electroshock (MES) and motor impairment tests. […] All compounds were dissolved in 0.9% saline.
(§3) The MES test was performed together with tests for myorelaxant action (traction reflex) and motor coordination (rotarod). For the traction reflex test mice were placed with their forepaws on a horizontal rod and were required to place all 4 paws on the wire within 10 seconds. To test ataxia (motor coordination) mice were placed on rotarod (5 rpm) and were required to remain on the rod for 1 minute. […] These tests were followed by MES (100 Hz, 0.5 second shock duration, 50 mA shock intensity, 0.9 ms impulse duration, Ugo Basile) applied through corneal electrodes. The presence of tonic convulsions was scored (tonic extension of hind paws with minimum angle to the body of 90°). The aim was to obtain ED50 s for all parameters scored (anticonvulsive activity and motor side effects) with use of the Litchfield Wilcoxon test for quantal dose responses. Division of the ED50 for side effects (ataxia or myorelaxation) by the ED50 for antagonism of electroshock convulsions was used as a therapeutic index (TI). […]

[2] = Protocol: All animals were kept with water and food ad libitum under a 12 hour light-dark cycle (light on at 6 a.m.) and at a controlled temperature (20±0.5° C.). All e experiments were performed between 10 a.m. and 5 p.m. Tested agents were injected 30 min. i.p. before the induction of convulsions if not stated otherwise (see below). All compounds were dissolved in 0.9% saline.
[3] = Traction reflex test (myorelaxant action) in mice, therapeutic index versus MES; type: in vivo; details: ED50 for traction reflex impairment divided by ED50 for MES; for selectivity ratio at 0.5 h: mouse, in vivo, ip, read-out: TI Tract
Protocol: as §2, §3

[4] = Table 7, 100 μM glutamate, 20 h, read-out: Glut. Tox. IC50
[5] = Table 9, 100 μM glutamate, read-out: Glut Tox IC50
[6] = Table 7; NMDA 200 μM with glycine 1 μM at -70 mV; read-out: Patch Clamp IC50
[7] = Table 9; NMDA-induced currents; read-out: Patch Clamp IC50
[8] = Table 8, 95% confidence limits in parentheses

Row | SMILES | pIC50 (cortical neurones; [4]) | pIC50 (cortical neurones; [5]) | pIC50 (NMDA receptor; [6]) | pIC50 (NMDA receptor; [7]) | ED50 ([1]; Table 7, 30 min before) | ED50 [1, 8] | Min Lethality ([2]; mouse, in vivo, ip) | TI Tract ([3]; 30 min) | selectivity ratio at 0.5 h [3] | pIC50 (cortical neurones; 20 h, read-out: Glut. Tox. IC50) | pIC50 (cortical neurones; read-out: Glut Tox IC50) | pIC50 (NMDA receptor; read-out: Patch Clamp IC50; Table 7; NMDA 200 μM with glycine 1 μM at -70 mV) | pIC50 (NMDA receptor; read-out: Patch Clamp IC50; Table 9; NMDA-induced currents) | Min Lethality ([2]; i.p., minimal lethal dose)
1 | CCC[C@@H]1CC(C)(C)C[C@@](C)(N)C1 (relative stereo) [Mrz 2/635] | 5.09 | 5.09 | 4.68 | 4.68 | 31.6 mg/kg | 31.6 mg/kg | > 50 mg/kg | 1.3 |  |  |  |  |  | 
2 | C[C@H]1CC(C)(C)C[C@@](C)(N)C1 (relative stereo) [Mrz 2/643] | 4.92 | 4.92 | 4.87 | 4.87 | 18.6 mg/kg | 18.6 mg/kg | > 50 mg/kg |  | 1.3 |  |  |  |  | 
3 | C[C@@H]1C[C@H](C)C[C@@](C)(N)C1 [MRZ 2/680, 1,trans-3,trans-5-Trimethylcyclohexylamine hydrochloride] |  | 4.45 |  | 4.37 |  | 34.5 mg/kg | > 50 mg/kg |  | 0.7 |  |  |  |  | 
4 | C[C@@H]1C[C@H](C)C[C@](C)(N)C1 [MRZ 2/681, 1,cis-3,cis-5-Trimethylcyclohexylamine hydrochloride hydrate] |  | 4.57 |  | 4.52 |  | 27.9 mg/kg | > 50 mg/kg |  | 2.1 |  |  |  |  | 
5 | CC[C@H]1CC(C)(C)C[C@](C)(N)C1 [MRZ 2/682, (1R, 5S) trans-3-Ethyl-1,5,5-trimethylcyclohexylamine hydrochloride] |  | 5.51 |  | 5.41 |  | 7.6 mg/kg | > 50 mg/kg |  | 2.7 |  |  |  |  | 
6 | CC[C@H]1CC(C)(C)C[C@@](C)(N)C1 [MRZ 2/683, (1S, 5S) cis-3-Ethyl-1,5,5-trimethylcyclohexylamine hydrochloride hydrate] |  | 5.29 |  | 5.37 |  | 12.2 mg/kg | > 50 mg/kg |  | 2.7 |  |  |  |  | 
7 | CC12CC3CC(C)(C1)CC(N)(C3)C2 [Memantine, reference compound] |  |  |  |  | 6.9 mg/kg | 6.9 mg/kg |  |  | 2.9 | 5.89 | 5.85 | 5.64 | 5.54 | > 108 mg/kg
